The source of these data is patent US7015177B2, “Solid formulation” (priority 2001, dated 2006).

Data set [1] in a line: Thermal degradation of agrochemical. It counts as physicochemical.
For data set [2], the system named is seeds.
The nature of data set [3]: Solubility of agrochemical in solvent or melt. The note with it: melt at about 65 to 70° C. The data set is classed as physicochemical.

For `CC1(C)[C@H](C(=O)O[C@H](C#N)c2cccc(Oc3ccccc3)c2)[C@@H]1/C=C(\Cl)C(F)(F)F` (racemic) [lambda cyhalothrin], the “temperature above which it tends to degrade” value in data set [1] was greater than 100 °C. `CCCCCCCCCCCCCCCCCC(=O)O` [stearic acid]: the retardation of germination result in data set [2] is given as “no significant retardation of germination”. On to `CN1COCN(Cc2cnc(Cl)s2)/C1=N\[N+](=O)[O-]` [thiamethoxam], for which the “solubility in melt of polyethylene glycol and methyl oleate” value in data set [3] is on record as “readily soluble”.
